Source: patent US20250367166A1, “NEXT GENERATION DIPROVOCIMS THAT ACTIVATE THE INNATE AND ADAPTIVE IMMUNE RESPONSE” (The Scripps Research Institute, priority 2022, published 2025)
Where two headings read alike, the source gives them in different places.

Columns and labels:
[1] = tested on: SIINFEKL-loaded C57BL/6J splenocytes; test: In vivo CTL assay after i.m. immunization with OVA plus diprovocim; design: species or system C57BL/6J mice; conditions: 200 μg diprovocim + 100 μg OVA, 9 days after initial immunization and 9 days after boost
Procedure: (§1) Mice were injected i.m. on day 0 and day 28 (FIG. 1) with 100 μg OVA alone, or 100 μg OVA mixed with vehicle (DMSO:Tween 80:saline=1:1:8), or mixed with 200 μg diprovocim-1 (TNF-α 1) or diprovocim-X (TNF-α 35) per mouse. EndoFit ovalbumin (OVA) with >98% purity minimum (SDS-PAGE) and endotoxin levels <1 EU/mg was purchased from Invivogen.
On day 9 and day 37 (FIG. 1), naive C57BL/6J mice were killed, and splenocytes were collected. […] The unpulsed and peptide-pulsed cells were labeled, respectively, with […] (“low”) or […] (“high”) CellTrace Violet (Invitrogen) in serum-free medium for 20 min. Equal numbers (2×10^6) of CellTrace Violet^high (OVA pulsed) and CellTrace Violet^low (unpulsed) cells were mixed together and injected intravenously into the immunized mice.
After 48 h, blood from treated mice was collected and subjected to flow cytometry analysis. The numbers of remaining live CellTrace Violet^high and CellTrace Violet^low cells were determined and used to calculate the percentage of OVA peptide-pulsed target cells killed. Specific killing was defined as the ratio=CellTrace Violet^low cells/CellTrace Violet^high cells. The percentage of target cell lysis=[1−unimmunized ratio/immunized ratio]×100.

[2] = tested on: OVA-specific IgG, IgG1, or IgG2b; test: Antibody response assay: serum OVA-specific IgG, IgG1, IgG2b by ELISA; format: in vivo, C57BL/6J mice; conditions: 14 days after a single immunization, with OVA
Procedure: as §1
On day 14 (FIG. 1), serum titers of OVA-specific IgG, IgG1, or IgG2b (SouthernBiotech) were measured by ELISA. Nunc MaxiSorp flat-bottom 96-well microplates (Thermo Fisher Scientific) were coated with 5 μg/mL soluble OVA (Invivogen) and incubated at 4° C. overnight (ca. 18 h). Plates were washed four times with washing buffer (0.05% [vol/vol] Tween-20 in PBS), then blocked with 1% (vol/vol) BSA in PBS for 1 h at room temperature. Serum samples diluted in 1% (vol/vol) BSA were added to the prepared plates and incubated for 2 h. The plates were washed eight times with washing buffer and then incubated with HRP-conjugated goat anti-mouse IgG, IgG1, or IgG2b for 1 h at room temperature. Plates were washed eight times with washing buffer, then developed with SureBlue TMB Microwell Peroxidase Substrate and TMB Stop Solution (KPL). Absorbance was measured at 450 nm on a Synergy Neo2 Plate Reader (BioTek).

B16-OVA melanoma [3] = test: Tumor growth assay, B16-OVA melanoma in immunized mice; format: in vivo, C57BL/6J mice; conditions: inoculation 10 days after the second challenge; anti-mPD-L1 i.p.
Procedure: as §1
B16-OVA cells (B16F10 melanoma cells stably expressing chicken ovalbumin) were grown in DMEM containing 10% vol/vol FBS. On day 38 (FIG. 1), a total of 2×10^5 B16-OVA cells in 100 μL PBS were injected s.c. into the right flank of 17 week-old male C57BL/6J mice to establish tumors. On days 41, 44, and 47, the mice were injected i.p. with 200 μg checkpoint inhibitor (anti-mPD-L1, BioXcell) in 100 μL saline. Tumors were measured with a digital caliper (Fisher) and the tumor sizes were calculated using the following formula: volume=0.5×length×width^2. Mice were sacrificed when the tumor length or width reached 2 cm.

[4] = In vivo adjuvant activity, i.m. co-administration with ovalbumin; conditions: for adjuvant activity in mice (CD4- and CD-8-dependent responses): with OVA, i.m.
Procedure: C57BL/6J mice were purchased from The Jackson Laboratory. All study procedures using mice were approved by the Institutional Animal Care and Use Committee (IACUC) of the University of Texas Southwestern Medical Center and were conducted in accordance with institutionally approved protocols and guidelines for animal care and use. All the mice were maintained at the University of Texas Southwestern Medical Center in accordance with institutionally approved protocols.
EndoFit ovalbumin (OVA) with >98% purity minimum (SDS-PAGE) and endotoxin levels <1 EU/mg was purchased from Invivogen.

TLR1/TLR2 [5] = target: T1, TLR1/TLR2 (Homo sapiens, UniProt O60603+Q15399); conditions: table of b113, in parentheses; cited from earlier work
TLR1/TLR2 [6] = target: T2, TLR1/TLR2 (Mus musculus, UniProt Q9EPQ1+Q9QUN7); conditions: cited from earlier work
B16-OVA melanoma [7] = conditions: background; diprovocim/OVA i.m.; cited from earlier work
[8] = background; cited from earlier work
TLR1/TLR2 [9] = target: T1, TLR1/TLR2; test: TNF-α release from PMA-differentiated human THP-1 cells (ELISA);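 note: cells exposed to graded compound concentrations for 4 h, TNF-α quantified in supernatant, LPS as positive and DMSO as negative control, values are duplicate means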
TLR1/TLR2 [10] = target: T2, TLR1/TLR2; test: TNF-α release from thioglycolate-elicited mouse peritoneal macrophages (ELISA)

T1 sequence (Q15399 25-786): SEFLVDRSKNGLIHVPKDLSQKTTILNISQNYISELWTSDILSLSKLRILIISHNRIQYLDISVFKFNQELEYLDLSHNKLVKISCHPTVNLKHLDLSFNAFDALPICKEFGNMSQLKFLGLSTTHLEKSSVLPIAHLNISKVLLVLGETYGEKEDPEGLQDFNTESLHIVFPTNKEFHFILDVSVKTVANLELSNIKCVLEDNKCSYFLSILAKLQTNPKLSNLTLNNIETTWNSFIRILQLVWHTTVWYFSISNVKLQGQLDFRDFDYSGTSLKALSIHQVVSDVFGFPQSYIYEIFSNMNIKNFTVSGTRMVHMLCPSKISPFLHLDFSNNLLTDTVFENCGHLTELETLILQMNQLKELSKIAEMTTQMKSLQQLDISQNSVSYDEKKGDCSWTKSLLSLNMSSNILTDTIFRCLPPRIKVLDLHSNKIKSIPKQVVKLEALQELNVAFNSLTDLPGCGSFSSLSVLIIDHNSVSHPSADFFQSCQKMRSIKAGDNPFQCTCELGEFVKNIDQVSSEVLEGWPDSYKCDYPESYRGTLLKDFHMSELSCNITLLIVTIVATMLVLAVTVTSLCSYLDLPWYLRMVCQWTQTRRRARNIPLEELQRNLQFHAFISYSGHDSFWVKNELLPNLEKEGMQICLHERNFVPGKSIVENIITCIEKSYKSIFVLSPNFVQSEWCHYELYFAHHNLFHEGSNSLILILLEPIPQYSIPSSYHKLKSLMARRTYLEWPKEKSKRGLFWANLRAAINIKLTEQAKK
T1 sequence (O60603 21-784): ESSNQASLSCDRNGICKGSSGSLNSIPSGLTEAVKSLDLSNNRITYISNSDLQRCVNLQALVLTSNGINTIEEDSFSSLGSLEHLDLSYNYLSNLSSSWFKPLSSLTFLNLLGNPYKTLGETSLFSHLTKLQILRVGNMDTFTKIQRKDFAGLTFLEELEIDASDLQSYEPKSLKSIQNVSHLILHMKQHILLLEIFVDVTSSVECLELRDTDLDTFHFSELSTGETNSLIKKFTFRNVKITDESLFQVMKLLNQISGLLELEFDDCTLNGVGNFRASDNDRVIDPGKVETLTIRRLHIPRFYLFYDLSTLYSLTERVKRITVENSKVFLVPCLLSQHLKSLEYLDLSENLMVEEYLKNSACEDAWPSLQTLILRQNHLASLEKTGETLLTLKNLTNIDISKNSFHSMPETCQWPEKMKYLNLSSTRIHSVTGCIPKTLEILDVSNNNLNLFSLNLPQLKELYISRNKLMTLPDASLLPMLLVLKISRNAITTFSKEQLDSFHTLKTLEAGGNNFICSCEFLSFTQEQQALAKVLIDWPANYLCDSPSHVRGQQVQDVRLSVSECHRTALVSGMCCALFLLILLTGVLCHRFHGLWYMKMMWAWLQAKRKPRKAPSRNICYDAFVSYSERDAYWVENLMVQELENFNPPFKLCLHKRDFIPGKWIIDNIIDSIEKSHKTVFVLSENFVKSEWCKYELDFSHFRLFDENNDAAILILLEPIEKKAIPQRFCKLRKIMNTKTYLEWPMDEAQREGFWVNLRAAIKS
T2 sequence (Q9EPQ1 26-795): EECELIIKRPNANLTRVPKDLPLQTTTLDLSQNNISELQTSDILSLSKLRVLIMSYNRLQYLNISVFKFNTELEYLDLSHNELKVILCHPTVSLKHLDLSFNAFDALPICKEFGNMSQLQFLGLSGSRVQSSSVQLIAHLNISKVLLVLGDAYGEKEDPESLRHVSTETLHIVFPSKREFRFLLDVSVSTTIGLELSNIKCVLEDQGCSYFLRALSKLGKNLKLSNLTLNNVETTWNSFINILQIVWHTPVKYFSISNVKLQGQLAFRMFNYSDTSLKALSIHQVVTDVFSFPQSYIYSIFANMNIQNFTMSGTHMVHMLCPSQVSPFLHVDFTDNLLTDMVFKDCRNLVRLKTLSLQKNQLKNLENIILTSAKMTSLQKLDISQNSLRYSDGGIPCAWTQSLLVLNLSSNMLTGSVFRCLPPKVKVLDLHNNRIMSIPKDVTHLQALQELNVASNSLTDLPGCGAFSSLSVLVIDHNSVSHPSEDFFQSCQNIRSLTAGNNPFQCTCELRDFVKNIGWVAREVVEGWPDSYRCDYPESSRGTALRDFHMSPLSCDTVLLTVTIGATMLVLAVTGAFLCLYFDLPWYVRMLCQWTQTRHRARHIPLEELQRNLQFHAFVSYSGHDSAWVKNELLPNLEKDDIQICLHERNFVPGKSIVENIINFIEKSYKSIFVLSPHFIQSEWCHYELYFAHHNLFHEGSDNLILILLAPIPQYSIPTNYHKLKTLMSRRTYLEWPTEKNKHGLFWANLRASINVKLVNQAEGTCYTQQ
T2 sequence (Q9QUN7 25-784): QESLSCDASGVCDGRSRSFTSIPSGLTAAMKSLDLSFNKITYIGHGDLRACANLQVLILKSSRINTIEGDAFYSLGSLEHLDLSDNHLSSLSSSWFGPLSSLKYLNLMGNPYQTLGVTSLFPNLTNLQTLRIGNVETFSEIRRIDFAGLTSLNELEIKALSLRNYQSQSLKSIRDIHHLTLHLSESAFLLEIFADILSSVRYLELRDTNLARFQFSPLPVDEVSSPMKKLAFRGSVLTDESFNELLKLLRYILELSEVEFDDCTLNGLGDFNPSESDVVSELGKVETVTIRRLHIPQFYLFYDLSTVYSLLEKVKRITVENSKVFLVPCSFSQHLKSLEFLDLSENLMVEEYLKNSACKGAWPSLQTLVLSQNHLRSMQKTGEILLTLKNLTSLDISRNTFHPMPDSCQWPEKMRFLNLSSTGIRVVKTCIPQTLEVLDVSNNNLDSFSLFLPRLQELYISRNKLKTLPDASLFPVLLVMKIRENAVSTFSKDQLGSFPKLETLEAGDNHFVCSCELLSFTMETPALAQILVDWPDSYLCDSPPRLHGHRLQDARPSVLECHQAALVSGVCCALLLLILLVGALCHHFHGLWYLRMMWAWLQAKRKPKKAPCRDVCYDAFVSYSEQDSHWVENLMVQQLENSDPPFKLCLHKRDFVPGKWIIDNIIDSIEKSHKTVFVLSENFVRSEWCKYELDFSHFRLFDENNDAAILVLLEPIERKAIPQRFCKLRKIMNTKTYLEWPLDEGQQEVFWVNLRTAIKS

O=C(N[C@H]1C[C@@H]1c1ccccc1)[C@@H]1CN(C(=O)c2ccc(C(=O)N3C[C@@H](C(=O)N[C@H]4C[C@@H]4c4ccccc4)[C@H](C(=O)N[C@H]4C[C@@H]4c4ccccc4)C3)cc2)C[C@H]1C(=O)N[C@H]1C[C@@H]1c1ccccc1 [Compound 1, reference compound]
in vivo cytotoxicity against OVA peptide-loaded C57BL/6J splenocytes (CTL, FIG. 2A) [1]: induced strong in vivo cytotoxicity | OVA-specific circulating antibodies of different subtypes by ELISA (FIGS. 3A-3C) [2]: strong responses | Resistance to B16-OVA melanoma (FIG. 2B) (B16-OVA melanoma [3]): notably enhanced | overt toxicity when used as an adjuvant ([4]; compared with LPS administration): did not display the overt toxicity | adjuvant activity in mice (CD4- and CD-8-dependent responses) [4]: comparable adjuvant activity | Efficacy (magnitude) of response versus diprovocim-1 (100%), THP-1 (TLR1/TLR2 [5]): 100% | Efficacy (magnitude) of response versus diprovocim-1 (100%), mouse macrophages (TLR1/TLR2 [6]; table of b113, in parentheses): 100% | effect of combination with anti-PD-L1 on B16-OVA tumors in mice (B16-OVA melanoma [7]): eradicated tumors | adjuvant activity in mice when co-administered i.m. with ovalbumin [8]: effective adjuvant

O=C(O)[C@@H]1CN(C(=O)c2ccc(C(=O)N3C[C@@H](C(=O)N[C@H]4C[C@@H]4c4ccccc4)[C@H](C(=O)N[C@H]4C[C@@H]4c4ccccc4)C3)cc2)C[C@H]1C(=O)N[C@H]1C[C@@H]1c1ccccc1 [Compound 2]
Efficacy (magnitude) of response versus diprovocim-1 (100%), THP-1 (TLR1/TLR2 [5]): 110% | EC50 (TLR1/TLR2 [6]; table of b113, prior observation ref 15, read-out: EC50 (nM) (mouse): EC50 TNF-α release from mouse macrophages): > 5000 nM

CC(C)(C)OC(=O)NCC(=O)OCCCCCCCCCCCCNC(=O)[C@@H]1CN(C(=O)c2ccc(C(=O)N3C[C@@H](C(=O)N[C@H]4C[C@@H]4c4ccccc4)[C@H](C(=O)N[C@H]4C[C@@H]4c4ccccc4)C3)cc2)C[C@H]1C(=O)N[C@H]1C[C@@H]1c1ccccc1 [Compound 35, 12-((3S,4S)-1-(4-((3S,4S)-3,4-Bis(((1S,2R)-2-phenylcyclopropyl)carbamoyl)-pyrrolidine-1-carbonyl)benzoyl)-4-(((1S,2R)-2-phenyl-cyclopropyl)carbamoyl)-pyrrolidine-3-carboxamido)-dodecyl-2-((tert-butoxycarbonyl)-amino)acetate]
in vivo cytotoxicity against OVA peptide-loaded C57BL/6J splenocytes (CTL, FIG. 2A) [1]: induced strong in vivo cytotoxicity | OVA-specific circulating antibodies of different subtypes by ELISA (FIGS. 3A-3C) [2]: strong responses | Resistance to B16-OVA melanoma (FIG. 2B) (B16-OVA melanoma [3]): notably enhanced | adjuvant activity in mice (CD4- and CD-8-dependent responses) [4]: matching or surpassing the activity of diprovocim-1 | efficacy relative to that of diprovocim-1 in human THP-1 cells (TLR1/TLR2 [9]): 100% | Efficacy (magnitude) of response versus diprovocim-1 (100%), THP-1 (TLR1/TLR2 [9]; Table 3, in parentheses): 100% | Efficacy (magnitude) of response versus diprovocim-1 (100%), THP-1 (TLR1/TLR2 [9]; Table 5, in parentheses): 100% | Efficacy (magnitude) of response versus diprovocim-1 (100%), THP-1 (TLR1/TLR2 [9]; Table 6, in parentheses): 100% | EC50 (TLR1/TLR2 [9]; read-out: EC50 (nM) (THP-1): EC50 TNF-α release from human THP-1 cells, Table 3): 0.14 nM | EC50 (TLR1/TLR2 [9]; read-out: EC50 (nM) (THP-1): EC50 TNF-α release from human THP-1 cells, Table 5): 0.14 nM | EC50 (TLR1/TLR2 [9]; read-out: EC50 (nM) (THP-1): EC50 TNF-α release from human THP-1 cells, Table 6): 0.14 nM | EC50 (TLR1/TLR2 [9]; read-out: EC50 in human THP-1 cells): 0.14 nM | efficacy relative to that of diprovocim-1 in mouse macrophages (TLR1/TLR2 [10]): 550% | fold more active than diprovocim-1 in mouse macrophages (TLR1/TLR2 [10]): 2 fold | Efficacy (magnitude) of response versus diprovocim-1 (100%), mouse macrophages (TLR1/TLR2 [10]; Table 3, in parentheses): 550% | Efficacy (magnitude) of response versus diprovocim-1 (100%), mouse macrophages (TLR1/TLR2 [10]; Table 5, in parentheses): 550% | Efficacy (magnitude) of response versus diprovocim-1 (100%), mouse macrophages (TLR1/TLR2 [10]; Table 6, in parentheses): 550% | EC50 (TLR1/TLR2 [10]; read-out: EC50 (nM) (mouse): EC50 TNF-α release from mouse macrophages, Table 3): 0.75 nM | EC50 (TLR1/TLR2 [10]; read-out: EC50 (nM) (mouse): EC50 TNF-α release from mouse macrophages, Table 5): 0.75 nM | EC50 (TLR1/TLR2 [10]; read-out: EC50 (nM) (mouse): EC50 TNF-α release from mouse macrophages, Table 6): 0.75 nM | EC50 (TLR1/TLR2 [10]; read-out: EC50 in mouse macrophages): 0.75 nM
